Data: PMC7904550, “Application of grouping and read-across for the evaluation of parabens of different chain lengths with a particular focus on endocrine properties” (Archives of Toxicology, 2021)
Marks after values point to notes of the source that are not given here.

Experiments:
Wistar rats [1] = assay: 90-day repeated dose oral toxicity study (OECD TG 408); assay type: in vivo, rat; settings: for NOAEL, 90-day repeated-dose toxicity: OECD 408 v 2018, oral gavage
Excerpt: (§1) Healthy and specific pathogen-free male and female (non-pregnant and nulliparous) Wistar Crl: WI(Han) rats were obtained from Charles River Laboratories (Germany). […] Upon arrival at BSL BIOSERVICE, the animals underwent an acclimatisation period of at least 5 days, and they were approximately 15–16 weeks old at the onset of the treatment period.

Wistar rats [2] = assay: Extended one-generation reproductive toxicity study (OECD TG 443); assay type: in vivo, rat; settings: for NOAEL, EOGRTS: developmental and reproductive toxicity: OECD 443 v 2018, oral gavage
Excerpt: as §1

in vivo = settings: for concentration at 1 h / Tmax / AUC(0-t) / Cmax: Wistar, rat, serum; for concentration at 1 h: oral; for Tmax / AUC(0-t) / Cmax: po
Experimental: These studies were conducted similarly to OECD TG 417 applying 500 and 1000 mg/kg body weight (bw) test item via oral gavage to 10 males and 10 females per dose group. Focus of the toxicokinetic evaluation was on the measurement of the serum concentrations of the parent compounds and their (common) major metabolite p-hydroxybenzoic acid by […] in order to assess the systemic uptake and elimination of the parent compounds and this major metabolite [see also ECHA ([2017a])]. The limit of quantification was determined as 10 ng/mL for all parabens, and as 130 ng/mL for p-hydroxybenzoic acid. […] On account of these major aims, investigations of the faeces and urine were not included in the toxicokinetics screening studies.

bacteria = settings: OECD 471; ref ECHA dissemination portal; cited from earlier work
mammalian cells = settings: OECD 476; ref ECHA dissemination portal; cited from earlier work
rats = settings: OECD 478; ref ECHA dissemination portal; cited from earlier work
[3] = parent compound, 500 mg/kg, female
[4] = parent compound, 500 mg/kg, male
[5] = parent compound, 1000 mg/kg, female
[6] = parent compound, 1000 mg/kg, male

Compound: COC(=O)c1ccc(O)cc1 [Methyl paraben, Methyl 4-hydroxybenzoate]
- NOAEL, 90-day repeated-dose toxicity (Wistar rats [1]): NOAEL: 1000 (OECD 408; v 2018) mg/kg body weight/day
- NOAEL, 90-day repeated-dose toxicity (Wistar rats [1]; listed as methyl paraben): 1000 mg/kg body weight/day
- Accessory sex organs HP (Wistar rats [1]; P0): NAE / NAE
- Adrenals HP (Wistar rats [1]; P0): NAE / NAE
- Adrenals weight (Wistar rats [1]; P0): NAE / NAE
- Brain weight (Wistar rats [1]; P0): NAE / NAE
- Cervix HP (Wistar rats [1]; P0): NAE / NAE
- Coagulating gland HP (Wistar rats [1]; P0): NAE / NAE
- Coagulating gland weight (Wistar rats [1]; P0): NAE / NAE
- Epididymis HP (Wistar rats [1]; P0): NAE / NAE
- Epididymis weight (Wistar rats [1]; P0): NAE / NAE
- Liver weight (Wistar rats [1]; P0): NAE / NAE
- Mammary gland HP; females (Wistar rats [1]; P0): NAE / NAE
- Mammary gland HP; males (Wistar rats [1]; P0): NAE / NAE
- Oestrus cyclicity (Wistar rats [1]; P0): NAE / NAE
- Ovary HP (Wistar rats [1]; P0): NAE / NAE
- Ovary weight (Wistar rats [1]; P0): NAE / NAE
- Oviduct HP (Wistar rats [1]; P0): NAE / NAE
- Pituitary HP (Wistar rats [1]; P0): NAE / NAE
- Pituitary weight (Wistar rats [1]; P0): NAE / NAE
- Prostate HP (Wistar rats [1]; P0): NAE / NAE
- Prostate weight (Wistar rats [1]; P0): NAE / NAE
- Seminal vesicles HP (Wistar rats [1]; P0): NAE / NAE
- Seminal vesicles weight (Wistar rats [1]; P0): NAE / NAE
- Testis HP (Wistar rats [1]; P0): NAE / NAE
- Testis weight (Wistar rats [1]; P0): NAE / NAE
- Thyroid HP (Wistar rats [1]; P0): NAE / NAE
- Thyroid stimulating hormone level (Wistar rats [1]; P0): NAE / NAE
- Thyroid weight (Wistar rats [1]; P0): NAE / NAE
- Triiodothyronine / thyroxine level (Wistar rats [1]; P0): NAE / NAE
- Uterus HP (with cervix) (Wistar rats [1]; P0): NAE / NAE
- Uterus weight (with cervix) (Wistar rats [1]; P0): NAE / NAE
- Vagina HP (Wistar rats [1]; P0): NAE / NAE
- Vaginal smears (Wistar rats [1]; P0): NAE / NAE
- Signs of systemic toxicity (Wistar rats [1]; sub-chronic (90-day) oral application): did not induce any signs of systemic toxicity
- Developmental immunotoxicity (DIT) (Wistar rats [2]; DIT cohort): did not exhibit
- Developmental neurotoxicity (DNT) (Wistar rats [2]; DNT cohort): did not exhibit DNT
- NOAEL, EOGRTS: developmental and reproductive toxicity (Wistar rats [2]): NOAEL: 1000 (OECD 443; v 2018) mg/kg body weight/day
- NOAEL, EOGRTS: developmental and reproductive toxicity (Wistar rats [2]; listed as methyl paraben): 1000 mg/kg body weight/day
- Accessory sex organs HP (Wistar rats [2]; P0, F1, (F2)): NAE / NAE
- Adrenals HP (Wistar rats [2]; P0, F1, (F2)): NAE / NAE
- Adrenals weight (Wistar rats [2]; P0, F1, (F2)): NAE / NAE
- Age at balano-preputial separation (Wistar rats [2]; P0, F1, (F2)): NAE / NAE
- Age at vaginal opening (Wistar rats [2]; P0, F1, (F2)): NAE / NAE
- Anogenital distance (Wistar rats [2]; P0, F1, (F2)): NAE / NAE
- Auditory startle (Wistar rats [2]; P0, F1, (F2)): NAE / NAE
- Brain HP (Wistar rats [2]; P0, F1, (F2)): NAE / NAE
- Brain morphometric evaluation (Wistar rats [2]; P0, F1, (F2)): NAE / NAE
- Brain weight (Wistar rats [2]; P0, F1, (F2)): NAE / NAE
- Cervix HP (Wistar rats [2]; P0, F1, (F2)): NAE / NAE
- Coagulating gland HP (Wistar rats [2]; P0, F1, (F2)): NAE / NAE
- Coagulating gland weight (Wistar rats [2]; P0, F1, (F2)): NAE / NAE
- Colloid area (thyroid HP) (Wistar rats [2]; P0, F1, (F2)): NAE / NAE
- Dystocia (Wistar rats [2]; P0, F1, (F2)): NAE / NAE
- Epididymis HP (Wistar rats [2]; P0, F1, (F2)): NAE / NAE
- Epididymis weight (Wistar rats [2]; P0, F1, (F2)): NAE / NAE
- Fertility (Wistar rats [2]; P0, F1, (F2)): NAE / NAE
- Foetal development (Wistar rats [2]; P0, F1, (F2)): NAE / NAE
- Functional observation battery (Wistar rats [2]; P0, F1, (F2)): NAE [h] / NAE
- Gestation length (Wistar rats [2]; P0, F1, (F2)): NAE / NAE
- Litter size (Wistar rats [2]; P0, F1, (F2)): NAE / NAE
- Litter viability (Wistar rats [2]; P0, F1, (F2)): NAE / NAE
- Liver weight (Wistar rats [2]; P0, F1, (F2)): NAE / NAE
- Mammary gland HP; females (Wistar rats [2]; P0, F1, (F2)): NAE / NAE
- Mammary gland HP; males (Wistar rats [2]; P0, F1, (F2)): NAE / NAE
- Motor activity (Wistar rats [2]; P0, F1, (F2)): NAE / NAE
- Nipple development (Wistar rats [2]; P0, F1, (F2)): NAE / NAE
- No. of implantations, corpora lutea (Wistar rats [2]; P0, F1, (F2)): NAE / NAE
- No. of live births (Wistar rats [2]; P0, F1, (F2)): NAE / NAE
- No. of ovarian follicles (Wistar rats [2]; P0, F1, (F2)): NAE / NAE
- Oestrus cyclicity (Wistar rats [2]; P0, F1, (F2)): NAE / NAE
- Offspring: learning & memory (Wistar rats [2]; P0, F1, (F2)): NAE / NAE
- Ovary HP (Wistar rats [2]; P0, F1, (F2)): NAE / NAE
- Ovary weight (Wistar rats [2]; P0, F1, (F2)): NAE / NAE
- Oviduct HP (Wistar rats [2]; P0, F1, (F2)): NAE / NAE
- Pituitary HP (Wistar rats [2]; P0, F1, (F2)): NAE / NAE
- Pituitary weight (Wistar rats [2]; P0, F1, (F2)): NAE / NAE
- Postimplantation loss (Wistar rats [2]; P0, F1, (F2)): NAE / NAE
- Presence of anomalies (external, visceral, skeletal) (Wistar rats [2]; P0, F1, (F2)): NAE / NAE
- Prostate HP (Wistar rats [2]; P0, F1, (F2)): NAE / NAE
- Prostate weight (Wistar rats [2]; P0, F1, (F2)): NAE / NAE
- Pup development (Wistar rats [2]; P0, F1, (F2)): NAE / NAE
- Reproduction (Wistar rats [2]; P0, F1, (F2)): NAE / NAE
- Seminal vesicles HP (Wistar rats [2]; P0, F1, (F2)): NAE / NAE
- Seminal vesicles weight (Wistar rats [2]; P0, F1, (F2)): NAE / NAE
- Sperm morphology (Wistar rats [2]; P0, F1, (F2)): NAE / NAE
- Sperm motility (Wistar rats [2]; P0, F1, (F2)): NAE / NAE
- Sperm numbers (Wistar rats [2]; P0, F1, (F2)): NAE / NAE
- Testis HP (Wistar rats [2]; P0, F1, (F2)): NAE / NAE
- Testis weight (Wistar rats [2]; P0, F1, (F2)): NAE / NAE
- Thyroid HP (Wistar rats [2]; P0, F1, (F2)): NAE / NAE
- Thyroid stimulating hormone level (Wistar rats [2]; P0, F1, (F2)): NAE / NAE
- Thyroid weight (Wistar rats [2]; P0, F1, (F2)): NAE / NAE
- Time to mating (Wistar rats [2]; P0, F1, (F2)): NAE / NAE
- Triiodothyronine / thyroxine level (Wistar rats [2]; P0, F1, (F2)): NAE / NAE
- Uterus HP (with cervix) (Wistar rats [2]; P0, F1, (F2)): NAE / NAE
- Uterus weight (with cervix) (Wistar rats [2]; P0, F1, (F2)): NAE / NAE
- Vagina HP (Wistar rats [2]; P0, F1, (F2)): NAE / NAE
- Vaginal smears (Wistar rats [2]; P0, F1, (F2)): NAE / NAE
- Alterations of the parameters addressed in OECD TG 443 (Wistar rats [2]; up to 1000 mg/kg bw/day): no toxicologically relevant alterations
- concentration at 1 h (in vivo; female, 500 mg/kg): 0.338 µg/mL
- concentration at 1 h (in vivo; female, 1000 mg/kg): 0.924 µg/mL
- Tmax (in vivo; female, 500 mg/kg): 4.8 min
- AUC(0-t) (in vivo; female, 500 mg/kg, AUC0-1 h, parent compound): 6.45 µg·h/mL
- AUC(0-t) (in vivo; female, 500 mg/kg, AUC0–t, parent compound): 9.5 µg·h/mL
- Cmax (in vivo; female, 500 mg/kg, parent compound): 21.2 µg/mL
- Tmax (in vivo; female, 1000 mg/kg): 4.8 min
- AUC(0-t) (in vivo; female, 1000 mg/kg, AUC0-1 h, parent compound): 11.4 µg·h/mL
- AUC(0-t) (in vivo; female, 1000 mg/kg, AUC0–t, parent compound): 20.5 µg·h/mL
- Cmax (in vivo; female, 1000 mg/kg, parent compound): 33.6 µg/mL
- Cmax (in vivo; female, 1000 mg/kg, parent compound, females): ~34 µg/mL
- concentration at 1 h (in vivo; male, 500 mg/kg): 0.172 µg/mL
- concentration at 1 h (in vivo; male, 1000 mg/kg): 0.552 µg/mL
- Tmax (in vivo; male, 500 mg/kg): 4.8 min
- AUC(0-t) (in vivo; male, 500 mg/kg, AUC0-1 h, parent compound): 1.11 µg·h/mL
- AUC(0-t) (in vivo; male, 500 mg/kg, AUC0–t, parent compound): 1.79 µg·h/mL
- Cmax (in vivo; male, 500 mg/kg, parent compound): 6.2 µg/mL
- AUC(0-t) (in vivo; male, 1000 mg/kg, AUC0-1 h, parent compound): 4.64 µg·h/mL
- AUC(0-t) (in vivo; male, 1000 mg/kg, AUC0–t, parent compound): 6.15 µg·h/mL
- Cmax (in vivo; male, 1000 mg/kg, parent compound): 10.8 µg/mL
- Cmax (in vivo; male, 1000 mg/kg, parent compound, males): ~11 µg/mL
- Rank of maximum serum concentration among the four parabens (in vivo; parent compound): highest maximum serum concentrations
- AUC0-1 h/AUC0–t (in vivo; [3]): 68%
- C1h/Cmax (in vivo; [3]): 1.6%
- Clast (in vivo; [3]): 0.0773 µg/mL
- tlast (in vivo; [3]): 8.0 h
- AUC0-1 h/AUC0–t (in vivo; [4]): 62%
- C1h/Cmax (in vivo; [4]): 2.8%
- Clast (in vivo; [4]): 0.0486 µg/mL
- tlast (in vivo; [4]): 8.0 h
- AUC0-1 h/AUC0–t (in vivo; [5]): 55%
- C1h/Cmax (in vivo; [5]): 2.7%
- Clast (in vivo; [5]): 0.179 µg/mL
- tlast (in vivo; [5]): 8.0 h
- AUC0-1 h/AUC0–t (in vivo; [6]): 75%
- C1h/Cmax (in vivo; [6]): 5.1%
- Clast (in vivo; [6]): 0.122 µg/mL
- tlast (in vivo; [6]): 8.0 h
- Mutagenicity in bacteria classification (bacteria): Not mutagenic (OECD 471; 1982, 1991)
- Mutagenicity in mammalian cells classification (mammalian cells): Not mutagenic [c] (OECD 476; 2019)
- Genetic toxicity in vivo (rats) classification (rats): Not clastogenic (OECD 478; 1974) [d]
